We go through 11 molecules from ChEMBL document CHEMBL1201862, “PubChem BioAssay data set” (2004).

The GI50 is the concentration giving 50% growth inhibition.

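Growth conditions: 96-well plates. Treatment: test compound, 48 hours, 5 concentrations. Analysis: linear interpolation between bracketing concentrations; unreached endpoints set to highest concentration. GI50 is the concentration that inhibits growth by half.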 Calls of active or inactive are those of the source. Rule as the data show it: active = GI50 up to about 1.1 µM and inactive = higher. Where only a bound is given, the exact number is not on record here.

Some test systems named below: HOP-92; RXF 393; CCRF-CEM; OVCAR-8; OVCAR-4; KM12; HCT-15; SK-MEL-28; COLO 205; HT-29; M14; UACC-257; MOLT-4; HOP-62; IGROV-1; SK-MEL-2; BT-549; SNB-19; K562; A498.
What all share (test): DTP human tumour cell line panel, 48 h

On to `O=C(O)c1ccc2c(c1)CC1(C2)Cc2ccccc2C1=O` (stereo unspecified), for which the GI50 with HOP-92 was 25.2 µM (inactive); with RXF 393, > 100 µM (inactive); with CCRF-CEM, > 100 µM (inactive); with OVCAR-8 it was > 100 µM (inactive); with OVCAR-4, > 100 µM (inactive); with KM12 it was > 100 µM (inactive). Besides, the GI50 was greater than 100 µM in the experiment on HCT-15; > 100 µM (inactive) in the experiment on SK-MEL-28; > 100 µM (inactive) in the experiment on COLO 205; > 100 µM (inactive) with HT-29; 51.8 µM (inactive) in the experiment with M14; > 100 µM (inactive) in the experiment on UACC-257. Also, the GI50 in the experiment on MOLT-4, with HOP-62, in the experiment with IGROV-1, in the experiment on SK-MEL-2, in the experiment on BT-549 and with SNB-19 was > 100 µM (inactive) in each case. Further, in the experiment with K562, the GI50 was > 100 µM (inactive).

Take `CCCCc1ccc(-n2sc3ncccc3c2=O)cc1`: the GI50 in the experiment with CCRF-CEM is 2.17 µM (inactive); in the experiment on OVCAR-8 it was 12.5 µM (inactive); in the experiment with OVCAR-4 it was 13.6 µM (inactive); in the experiment with KM12, 13.4 µM (inactive); in the experiment with HCT-15, 5.52 µM; with SK-MEL-28 it was 13.9 µM (inactive). In addition, the GI50 is 17.3 µM (inactive) in the experiment with COLO 205; 16.1 µM (inactive) with HT-29; 11.2 µM (inactive) with M14; 16.3 µM (inactive) with UACC-257; 4.74 µM (inactive) in the experiment with MOLT-4; 11 µM (inactive) in the experiment on HOP-62. The GI50 in the experiment on IGROV-1 is 12.3 µM (inactive); in the experiment on SK-MEL-2, 12.2 µM (inactive); with BT-549, 19.1 µM (inactive); with SNB-19 it was 21.9 µM (inactive).

As to `Cc1ncc2c(=O)c3c(oc2n1)c1ccccc1n3Cc1ccccc1`, the GI50 was > 100 µM (inactive) in the experiment on RXF 393; > 100 µM (inactive) in the experiment on CCRF-CEM; > 100 µM (inactive) in the experiment with OVCAR-8; > 100 µM (inactive) with KM12; greater than 100 µM in the experiment on HCT-15; > 100 µM (inactive) in the experiment with SK-MEL-28. Further, the GI50 in the experiment with COLO 205 is > 100 µM (inactive); with HT-29 it was > 100 µM (inactive); with UACC-257 it was > 100 µM (inactive); in the experiment with MOLT-4 it was > 100 µM (inactive); in the experiment on HOP-62 it was 27.4 µM (inactive); with IGROV-1, > 100 µM (inactive). For the same molecule, the GI50 with BT-549, with SNB-19 and with K562 was > 100 µM (inactive) in each case.

As to `CC(C)(CO)CNc1nc(N)nc(Cl)c1N`, the GI50 with HOP-92, in the experiment on RXF 393, in the experiment with CCRF-CEM, in the experiment with OVCAR-8, in the experiment with OVCAR-4 and in the experiment with KM12 was > 100 µM (inactive) in each case. Besides, the GI50 in the experiment with HCT-15 was greater than 100 µM; with SK-MEL-28, > 100 µM (inactive); with COLO 205 it was > 100 µM (inactive); with HT-29 it was > 100 µM (inactive); in the experiment with UACC-257 it was 42.9 µM (inactive); with MOLT-4, > 100 µM (inactive). Besides, the GI50 with HOP-62, with IGROV-1, with SK-MEL-2, in the experiment on BT-549, with SNB-19 and in the experiment on K562 was > 100 µM (inactive) each time.

As to `CC(C)CCCC(C)[C@H]1CCC2[C@@H]3CCC4Cc5nc6c(nc5C[C@]4(C)C3CC[C@@]21C)CC1CC[C@@H]2C(C[C@@H](O)[C@@]3(C)C2C[C@@H]2OC4(CCC(C)CO4)C(C)[C@@H]23)[C@@]1(C)C6` (stereo partly specified), the GI50 in the experiment on HOP-92, in the experiment on RXF 393, in the experiment on CCRF-CEM, with OVCAR-8, with OVCAR-4 and in the experiment with KM12 was > 100 µM (inactive) each time. The GI50 in the experiment with HCT-15 was greater than 100 µM; in the experiment with SK-MEL-28 it was > 100 µM (inactive); with COLO 205, > 100 µM (inactive); in the experiment on HT-29, > 100 µM (inactive); with M14 it was > 100 µM (inactive); in the experiment with UACC-257, > 100 µM (inactive). Moreover, the GI50 in the experiment with MOLT-4, in the experiment with HOP-62, with IGROV-1, with BT-549, in the experiment with SNB-19 and in the experiment on K562 was > 100 µM (inactive) each time.

Take `Cc1ccc(S(=O)(=O)NNC(=O)c2cc(C)ccc2NC(=O)C23CC4CC(CC(C4)C2)C3)cc1`: the GI50 was 21.6 µM (inactive) in the experiment on HOP-92; 25.4 µM (inactive) in the experiment with RXF 393; > 100 µM (inactive) in the experiment on CCRF-CEM; 45.7 µM (inactive) in the experiment on OVCAR-8; 27.7 µM (inactive) in the experiment on OVCAR-4; 75.3 µM (inactive) in the experiment on KM12. The GI50 in the experiment on HCT-15 was 22.7 µM; with COLO 205, > 100 µM (inactive); with HT-29, > 100 µM (inactive); in the experiment with M14 it was 84.7 µM (inactive); in the experiment with UACC-257, 25.4 µM (inactive); with MOLT-4, > 100 µM (inactive). Besides, the GI50 in the experiment with HOP-62 is 29.3 µM (inactive); in the experiment with IGROV-1, 12.6 µM (inactive); with BT-549, > 100 µM (inactive); with SNB-19 it was 16.9 µM (inactive); in the experiment on K562, > 100 µM (inactive).

With `NS(=O)(=O)c1nnc(NC(=O)c2cccc([N+](=O)[O-])c2)s1`, the GI50 is 44.9 µM (inactive) with HOP-92; > 100 µM (inactive) in the experiment with RXF 393; > 100 µM (inactive) in the experiment with OVCAR-8; > 100 µM (inactive) in the experiment on OVCAR-4; > 100 µM (inactive) in the experiment with KM12; greater than 100 µM in the experiment with HCT-15. The GI50 with SK-MEL-28, in the experiment with COLO 205, in the experiment on M14, in the experiment on UACC-257, in the experiment with MOLT-4 and with HOP-62 was > 100 µM (inactive) throughout. Also, the GI50 in the experiment with SK-MEL-2, in the experiment on BT-549, in the experiment on SNB-19 and in the experiment with K562 was > 100 µM (inactive) throughout.

As to `N#Cc1c(-c2ccc(Cl)cc2)c2c(n(C3OC(CO)C(O)C(O)C3O)c1=S)CCC2` (stereo unspecified), the GI50 in the experiment on HOP-92 is 24.3 µM (inactive); in the experiment on RXF 393 it was 21.9 µM (inactive); with CCRF-CEM it was 16.1 µM (inactive); with OVCAR-4, 34 µM (inactive); in the experiment on KM12, 41.9 µM (inactive); in the experiment on HCT-15 it was 36.6 µM. Further, the GI50 is 17.8 µM (inactive) in the experiment on SK-MEL-28; 29.6 µM (inactive) in the experiment with COLO 205; 29 µM (inactive) in the experiment with HT-29; 22.6 µM (inactive) in the experiment on M14; 33.4 µM (inactive) in the experiment with UACC-257; 10.4 µM (inactive) in the experiment on MOLT-4. The GI50 is 23.6 µM (inactive) with HOP-62; 34.1 µM (inactive) in the experiment on IGROV-1; 34.5 µM (inactive) in the experiment with SK-MEL-2; 34.4 µM (inactive) with BT-549; 22 µM (inactive) in the experiment with SNB-19; 14.7 µM (inactive) in the experiment with K562.

In the case of `O=C(CNc1ccccc1[N+](=O)[O-])Nn1cnc2ccc(S(=O)(=O)Nc3ccccc3[N+](=O)[O-])cc2c1=O`, the GI50 with HOP-92 is > 100 µM (inactive); in the experiment on CCRF-CEM, > 100 µM (inactive); in the experiment on OVCAR-8 it was > 100 µM (inactive); in the experiment with OVCAR-4, > 100 µM (inactive); in the experiment on KM12, > 100 µM (inactive); in the experiment with HCT-15, greater than 100 µM. For the same molecule, the GI50 in the experiment on SK-MEL-28, in the experiment on COLO 205, with HT-29, with M14, in the experiment on UACC-257 and in the experiment on MOLT-4 was > 100 µM (inactive) each time. For the same molecule, the GI50 was > 100 µM (inactive) in the experiment on HOP-62; 78.9 µM (inactive) in the experiment on IGROV-1; > 100 µM (inactive) in the experiment on SK-MEL-2; > 100 µM (inactive) in the experiment with BT-549; > 100 µM (inactive) in the experiment on SNB-19; > 100 µM (inactive) in the experiment on K562.

Take `COC(=O)/C(Cl)=C1/CC1COCc1ccccc1` (stereo unspecified): the GI50 in the experiment with HOP-92 is 22.9 µM (inactive); in the experiment on RXF 393, 18.9 µM (inactive); in the experiment with CCRF-CEM, 14 µM (inactive); in the experiment on OVCAR-8, 30.5 µM (inactive); with OVCAR-4 it was 31 µM (inactive); in the experiment with KM12, 28.7 µM (inactive). For the same molecule, the 50% growth inhibitory concentration (GI50) with HCT-15 is 17.1 µM; in the experiment on SK-MEL-28 it was 21.8 µM (inactive); in the experiment on COLO 205, 21.2 µM (inactive); with HT-29 it was 25 µM (inactive); in the experiment on M14, 17 µM (inactive); with UACC-257, 34.7 µM (inactive). In addition, the GI50 in the experiment on MOLT-4 is 19.8 µM (inactive); in the experiment on A498, 22.6 µM (inactive); in the experiment with HOP-62 it was > 100 µM (inactive); in the experiment with IGROV-1, 44.9 µM (inactive); in the experiment with SK-MEL-2, 31.9 µM (inactive); in the experiment on SNB-19 it was 78.9 µM (inactive). For the same molecule, in the experiment with K562, the GI50 was 17.9 µM (inactive).

For the molecule `CC1OC2OC3C(OCC(O)C3O)OC(=O)[C@]34CCC(C)(C)CC3C3=CCC5[C@@]6(C)C[C@H](O)[C@H](OC7OC(CO)C(O)C(O)C7OC7OCC(OC(=O)CC(C)(O)CC(=O)OC1C(OC1OC(CO)C(O)C(O)C1O)C2O)C(O)C7O)[C@@](C)(CO)C6CC[C@@]5(C)[C@]3(C)CC4` (stereo partly specified), the GI50 in the experiment with HOP-92 was 10.3 µM (inactive); with CCRF-CEM it was 12.3 µM (inactive); with OVCAR-8, 12.3 µM (inactive); in the experiment on OVCAR-4 it was 6.25 µM (inactive); in the experiment with KM12 it was 8.53 µM (inactive); in the experiment on HCT-15, 12 µM. The GI50 was 1.97 µM (inactive) in the experiment on SK-MEL-28; 2.3 µM (inactive) with COLO 205; 7.78 µM (inactive) in the experiment with HT-29; 3.41 µM (inactive) in the experiment on M14; 3.48 µM (inactive) with UACC-257; 10.3 µM (inactive) with MOLT-4. Further, the GI50 in the experiment on HOP-62 is 1.44 µM (inactive); in the experiment on IGROV-1, 7.53 µM (inactive); in the experiment with SK-MEL-2, 4.18 µM (inactive); in the experiment with BT-549, 9.27 µM (inactive); in the experiment with SNB-19 it was 11.4 µM (inactive).
